# Measurements: patent publication US12054498B2, “Heteroaromatic macrocyclic ether chemotherapeutic agents” (Nuvalent, Inc., priority 2020, dated 2024)
# Legend:
# ROS1-G2032R = target: T1, ROS1-G2032R (Homo sapiens, UniProt P08922, G2032R); experiment: Biochemical kinase assay, ROS1-G2032R kinase domain; details: apparent inhibitory constant, Morrison equation; ATP 2 mM in substrate solution; read-out: ROS1-G2032R Ki^app
# T1 construct: purchased SignalChem R14-12BG
# Description: (§1) First, 250 nL of compound dissolved in DMSO (100-fold of the desired concentration) was dispensed into a 384-well plate. A 12.5 μL substrate solution containing ATP (2 mM) and fluorogenic phosphorylation substrate AQT0101 (26 μM for ALK and ROS1, AssayQuant) or AQT0104 (26 μM for TRKA, AssayQuant) in buffer (50 mM HEPES pH 7.5, 0.01% Brij-35, 0.5 mM EGTA, 10 mM MgCl2) was added and mixed thoroughly. […] The plate was sealed and read by SpectraMax Paradigm at λ=485 nm every 2 minutes for 120 minutes at 30° C. Initial rates of reaction (v) were calculated from the change in fluorescence intensity over time during the initial, linear portion of the reaction. Finally, apparent inhibitory constants (Ki^app) were determined from regression of v and I (inhibitor concentration) to Morrison Equation (E=enzyme concentration): […]
# [1] = target: T2, Ba/F3 cells EML4-ALK L1196M/G1202R (variant 1) (Homo sapiens, UniProt Q9UM73, G1202R/L1196M); experiment: Ba/F3 cell proliferation assay, EML4-ALK L1196M/G1202R (variant 1); type: cell-based; details: 72 hours, CellTiter-Glo
# T2 construct: echinoderm microtubule-associated protein-like 4 (EML4) gene and the ALK tyrosine kinase domain; host or cells: Ba/F3 (RIKEN), retroviral pMSCV-puro; the other entry of the earlier key: EML4 (Q9HC35, Echinoderm microtubule-associated protein-like 4)
# Description: (§2) Genes encoding CD74-ROS1 wild-type (wt), CD74-ROS1 G2032R, CD74-ROS1 S1986F, CD74-ROS1 L2026M, CD74-ROS1 D2033N, EML4-ALK wt (variant 1), EML4-ALK G1202R (variant 1), EML4-ALK L1196M/G1202R (variant 1), EML4-ALK G1202R/G1269A (variant 1), EML4-ALK G1202R/L1198F (variant 1), and TPM3-TRKA were synthesized at GeneRay, cloned into the retroviral construct pMSCV-puro (Biovector), and packaged into retroviral particles. The virus was used to infect Ba/F3 cells (RIKEN) at multiplicity of infection=1 for 1 day. Infected cells were rescued in media (RPMI-1640 with 10% fetal bovine serum and 1% streptomycin and penicillin) supplemented with mouse IL-3 (10 ng/mL) for 2 days, and stable cell lines were selected by IL-3 withdrawal and puromycin (0.8 μg/mL) for 7 days. Monoclones were selected by single-cell dilution in IL-3-free medium containing puromycin (0.8 μg/mL). Transformation of desired genes was confirmed by Sanger sequencing and western blot using the following antibodies: ROS1 (CST #3287), ALK (CST #3633), and pan-TRK (Abcam #76291).
# (§3) Cell Proliferation Assay Stable cells were plated at 1,000 cells/well (40 μL) in a 384-well plate for 1 day.
# (§4) Test compounds (40 nL) were then added in a 3-fold dilution series using the TECAN EVO200 liquid handler and incubated for 72 hours. Plates were equilibrated at room temperature for 15 minutes followed by addition of 40 μL CellTiter-Glo reagent (Promega).
# (§5) Luminescence was measured on a plate reader. Half-maximal inhibitory concentration (IC50) was calculated from percent inhibition and inhibitor concentration using four-parameter logistic regression. […] (nd=not determined).
# ALK L1196M/G1202R = target: T3, ALK L1196M/G1202R (Homo sapiens, UniProt Q9UM73, G1202R/L1196M); experiment: Biochemical kinase assay, ALK L1196M/G1202R kinase domain; details: apparent inhibitory constant, Morrison equation; ATP 2 mM in substrate solution; read-out: ALK-L1196M-G1202R Ki^app
# T3 construct: purchased SignalChem A19-12NG
# Description: (§6) First, 250 nL of compound dissolved in DMSO (100-fold of the desired concentration) was dispensed into a 384-well plate. A 12.5 μL substrate solution containing ATP (2 mM) and fluorogenic phosphorylation substrate AQT0101 (26 μM for ALK and ROS1, AssayQuant) or AQT0104 (26 μM for TRKA, AssayQuant) in buffer (50 mM HEPES pH 7.5, 0.01% Brij-35, 0.5 mM EGTA, 10 mM MgCl2) was added and mixed thoroughly. Then, a 12.5 μL kinase solution containing ALK-wt (1.5 nM, Carna, 08-518), ALK ALK L1196M/G1202R (3 nM, SignalChem, A19-12NG), ROS1-wt (0.6 nM, Carna, 08-163), ROS1-G2032R (0.5 nM, SignalChem, R14-12BG), or TRKA-wt (1 nM, BPS Bio, 40280) kinase domains in buffer ([…] HEPES pH 7.5, 0.01% Brij-35, 2% glycerol, 0.4 mg/mL BSA, 0.5 mM EGTA, and 10 mM MgCl2) was added and mixed thoroughly. The plate was sealed and read by SpectraMax Paradigm at λ=485 nm every 2 minutes for 120 minutes at 30° C. Initial rates of reaction (v) were calculated from the change in fluorescence intensity over time during the initial, linear portion of the reaction. Finally, apparent inhibitory constants (Ki^app) were determined from regression of v and I (inhibitor concentration) to Morrison Equation (E=enzyme concentration): […]
# [2] = target: T4, Ba/F3 cells CD74-ROS1 G2032R (Homo sapiens, UniProt P08922, G2032R); experiment: Ba/F3 cell proliferation assay, CD74-ROS1 G2032R; type: cell-based; details: 72 hours, CellTiter-Glo
# T4 construct: fusion of the C-terminus of ROS1 with the N-terminus of various partner proteins; host or cells: Ba/F3 (RIKEN), retroviral pMSCV-puro; the other entry of the earlier key: CD74 (P04233, HLA class II histocompatibility antigen gamma chain)
# Description: The virus was used to infect Ba/F3 cells (RIKEN) at multiplicity of infection=1 for 1 day. Infected cells were rescued in media (RPMI-1640 with 10% fetal bovine serum and 1% streptomycin and penicillin) supplemented with mouse IL-3 (10 ng/mL) for 2 days, and stable cell lines were selected by IL-3 withdrawal and puromycin (0.8 μg/mL) for 7 days. Monoclones were selected by single-cell dilution in IL-3-free medium containing puromycin (0.8 μg/mL).
# as §3, §4, §5
# ROS1-wt = target: T5, ROS1-wt (Homo sapiens, UniProt P08922); experiment: Biochemical kinase assay, ROS1-wt kinase domain; details: apparent inhibitory constant, Morrison equation; ATP 2 mM in substrate solution; read-out: ROS1-wt Ki^app
# T5 construct: purchased Carna 08-163
# Description: as §1
# Ba/F3 cells TPM3-TRKA = target: T6, Ba/F3 cells TPM3-TRKA (Homo sapiens, UniProt P04629); experiment: Ba/F3 cell proliferation assay, TPM3-TRKA; type: cell-based; details: 72 hours, CellTiter-Glo, read-out: TPM3-NTRK1-wt IC50
# T6 construct: host or cells: Ba/F3 (RIKEN), retroviral pMSCV-puro; the other entry of the earlier key: TPM3 (P06753, Tropomyosin alpha-3 chain)
# Description: as §2, §3, §4, §5
# TRKA-wt = target: T7, TRKA-wt (Homo sapiens, UniProt P04629); experiment: Biochemical kinase assay, TRKA-wt kinase domain; details: apparent inhibitory constant, Morrison equation; ATP 2 mM in substrate solution; read-out: TRKA-wt Ki^app
# T7 construct: or TRKA-wt (1 nM, BPS Bio, 40280) kinase domains in buffer; purchased BPS Bio 40280
# Description: as §6
# [3] = system: TPM3-NTRK1-wt IC50 / primary target IC50 (e.g. CD74-ROS1-wt); experiment: TRKA selectivity in Ba/F3 cells (TRKA potency divided by primary target potency); type: cell-based
# Description: TRKA selectivity was calculated by dividing a compound's TRKA potency by its primary target potency (e.g. TPM3-NTRK1-wt IC50/CD74-ROS1-wt IC50). Compound selectivity can be interpreted by binning ratio values: bin A for very high selectivity, ratio >30-fold; bin B for high selectivity, ratio >10-fold; bin C for moderate selectivity, ratio ≥1; and bin D for low selectivity, ratio <1. […] (nd=not determined).
# ALK-wt = target: T8, ALK-wt (Homo sapiens, UniProt Q9UM73); experiment: Biochemical kinase assay, ALK-wt kinase domain; details: apparent inhibitory constant, Morrison equation; ATP 2 mM in substrate solution; read-out: ALK-wt Ki^app
# T8 construct: purchased Carna 08-518
# Description: as §6
# [4] = target: T9, Ba/F3 cells EML4-ALK wt (variant 1) (Homo sapiens, UniProt Q9UM73); experiment: Ba/F3 cell proliferation assay, EML4-ALK wt (variant 1); type: cell-based; details: 72 hours, CellTiter-Glo
# T9 construct: echinoderm microtubule-associated protein-like 4 (EML4) gene and the ALK tyrosine kinase domain; host or cells: Ba/F3 (RIKEN), retroviral pMSCV-puro; the other entry of the earlier key: EML4 (Q9HC35, Echinoderm microtubule-associated protein-like 4)
# Description: as §2, §3, §4, §5
# T6 sequence (P04629 510-796 limits assumed): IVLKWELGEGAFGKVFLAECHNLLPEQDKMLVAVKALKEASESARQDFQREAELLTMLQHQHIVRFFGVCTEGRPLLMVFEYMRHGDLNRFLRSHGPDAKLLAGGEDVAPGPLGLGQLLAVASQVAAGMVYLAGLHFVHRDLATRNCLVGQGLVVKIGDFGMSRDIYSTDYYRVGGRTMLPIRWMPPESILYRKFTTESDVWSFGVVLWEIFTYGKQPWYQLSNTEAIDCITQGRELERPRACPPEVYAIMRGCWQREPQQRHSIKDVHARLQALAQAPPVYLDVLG
# T7 sequence (P04629 510-781 limits assumed): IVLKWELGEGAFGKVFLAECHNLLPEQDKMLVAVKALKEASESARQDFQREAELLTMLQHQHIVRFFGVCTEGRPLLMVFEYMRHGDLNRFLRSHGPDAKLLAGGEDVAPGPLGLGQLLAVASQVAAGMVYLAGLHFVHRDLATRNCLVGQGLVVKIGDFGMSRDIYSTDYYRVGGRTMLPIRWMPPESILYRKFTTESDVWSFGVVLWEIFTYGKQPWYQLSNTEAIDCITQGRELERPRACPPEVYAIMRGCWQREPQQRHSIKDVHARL
# T2 sequence (Q9UM73 with tags, fused parts or gaps L1196M/G1202R): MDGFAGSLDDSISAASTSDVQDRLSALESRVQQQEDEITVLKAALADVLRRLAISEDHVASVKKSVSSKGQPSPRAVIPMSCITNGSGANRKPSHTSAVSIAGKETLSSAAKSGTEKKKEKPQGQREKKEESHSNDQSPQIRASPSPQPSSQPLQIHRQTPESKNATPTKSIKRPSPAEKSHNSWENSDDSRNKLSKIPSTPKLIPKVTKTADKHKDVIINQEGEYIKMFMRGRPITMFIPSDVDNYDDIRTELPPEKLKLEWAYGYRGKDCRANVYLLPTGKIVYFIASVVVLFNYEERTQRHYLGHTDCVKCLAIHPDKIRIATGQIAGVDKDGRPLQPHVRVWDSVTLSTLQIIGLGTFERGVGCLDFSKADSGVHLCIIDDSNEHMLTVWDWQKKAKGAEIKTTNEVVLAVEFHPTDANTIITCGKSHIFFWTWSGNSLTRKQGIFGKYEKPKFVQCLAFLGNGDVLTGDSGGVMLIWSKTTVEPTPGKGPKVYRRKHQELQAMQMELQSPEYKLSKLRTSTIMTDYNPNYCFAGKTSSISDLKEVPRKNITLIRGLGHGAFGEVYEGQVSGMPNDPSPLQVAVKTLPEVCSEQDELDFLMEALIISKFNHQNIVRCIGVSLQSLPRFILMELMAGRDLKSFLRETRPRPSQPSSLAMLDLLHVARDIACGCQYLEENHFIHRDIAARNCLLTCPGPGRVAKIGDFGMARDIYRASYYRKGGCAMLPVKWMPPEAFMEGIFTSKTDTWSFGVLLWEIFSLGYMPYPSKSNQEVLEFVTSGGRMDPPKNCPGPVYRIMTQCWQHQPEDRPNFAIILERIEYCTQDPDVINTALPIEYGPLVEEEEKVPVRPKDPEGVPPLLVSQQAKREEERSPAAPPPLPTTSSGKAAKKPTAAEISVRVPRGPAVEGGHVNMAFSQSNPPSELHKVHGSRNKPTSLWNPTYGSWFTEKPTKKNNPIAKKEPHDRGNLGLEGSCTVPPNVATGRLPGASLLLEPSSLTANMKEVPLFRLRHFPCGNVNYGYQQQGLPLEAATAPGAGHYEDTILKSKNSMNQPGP
# T8 sequence (Q9UM73 1116-1392 limits assumed): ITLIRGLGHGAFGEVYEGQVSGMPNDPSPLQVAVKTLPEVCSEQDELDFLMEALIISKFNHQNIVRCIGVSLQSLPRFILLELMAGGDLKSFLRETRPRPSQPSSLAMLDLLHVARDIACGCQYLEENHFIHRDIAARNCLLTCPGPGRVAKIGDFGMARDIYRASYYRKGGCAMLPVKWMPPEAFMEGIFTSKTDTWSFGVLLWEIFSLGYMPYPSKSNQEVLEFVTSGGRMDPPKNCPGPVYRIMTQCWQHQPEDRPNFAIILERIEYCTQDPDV
# T3 sequence (Q9UM73 1116-1392 L1196M/G1202R limits assumed): as the sequence (Q9UM73 1116-1392 limits assumed) above, with L81M, G87R counted along it
# T5 sequence (P08922 1945-2222 limits assumed): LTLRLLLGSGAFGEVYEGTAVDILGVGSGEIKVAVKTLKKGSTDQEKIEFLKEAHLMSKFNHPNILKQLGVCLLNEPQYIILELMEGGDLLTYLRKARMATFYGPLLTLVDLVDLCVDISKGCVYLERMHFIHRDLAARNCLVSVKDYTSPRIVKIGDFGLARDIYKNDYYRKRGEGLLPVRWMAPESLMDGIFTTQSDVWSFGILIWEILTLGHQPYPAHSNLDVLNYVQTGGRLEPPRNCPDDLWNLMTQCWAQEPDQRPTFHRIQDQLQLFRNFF
# T9 sequence (Q9UM73 with tags, fused parts or gaps): as the sequence (Q9UM73 with tags, fused parts or gaps L1196M/G1202R) above, with M635L, R641G counted along it
# T4 sequence (P08922 1883-2347 G2032R limits assumed): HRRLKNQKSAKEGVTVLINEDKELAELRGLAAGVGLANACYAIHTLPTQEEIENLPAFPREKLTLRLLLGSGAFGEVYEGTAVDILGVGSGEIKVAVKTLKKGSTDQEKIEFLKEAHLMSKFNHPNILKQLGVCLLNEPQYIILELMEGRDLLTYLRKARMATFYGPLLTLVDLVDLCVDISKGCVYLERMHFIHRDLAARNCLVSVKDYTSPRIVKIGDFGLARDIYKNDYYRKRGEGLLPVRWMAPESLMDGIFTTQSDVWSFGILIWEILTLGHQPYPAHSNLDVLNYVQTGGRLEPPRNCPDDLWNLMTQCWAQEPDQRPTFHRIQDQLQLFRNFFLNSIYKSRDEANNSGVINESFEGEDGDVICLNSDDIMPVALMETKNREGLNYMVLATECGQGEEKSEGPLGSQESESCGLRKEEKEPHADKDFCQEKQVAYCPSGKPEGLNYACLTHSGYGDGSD
# T1 sequence (P08922 1945-2222 G2032R limits assumed): as the sequence (P08922 1945-2222 limits assumed) above, with G88R counted along it
Ki (ROS1-G2032R) [nM],IC50 [1] [nM],Ki (ALK L1196M/G1202R) [nM],IC50 [2] [nM],Ki (ROS1-wt) [nM],IC50 (Ba/F3 cells TPM3-TRKA) [nM],Ki (TRKA-wt) [nM],Ki (ALK-wt) [nM],IC50 [4] [nM],Compound,TPM3-NTRK1-wt/CD74-ROS1-G2032R selectivity ratio ([3]; TRKA potency / CD74-ROS1-G2032R potency),TPM3-NTRK1-wt/EML4-ALK-L1196M-G1202R selectivity ratio ([3]; TRKA potency / EML4-ALK-L1196M-G1202R potency)
50 to 500,> 500,50 to 500,0.1 to 50,< 50,> 500,> 500,< 50,–,"CCn1ncc2c1-c1cnc(N)c(c1)O[C@H](C)c1cc(F)ccc1-c1cnnn1C2 [Example 2, (19R)-3-ethyl-16-fluoro-19-methyl-20-oxa-3,4,8,9,10,23-hexaazapentacyclo[19.3.1.0^2,^6.0^8,^12.0^13,^18]pentacosa-1(24),2(6),4,9,11,13,15,17,21 (25),22-decaen-22-amine]","A (bin A for very high selectivity, ratio >30-fold)","C (bin C for moderate selectivity, ratio ≥1)"
–,0.1 to 50,< 50,–,–,50 to 500,50 to 500,< 50,0.1 to 50,"CCn1ncc2c1-c1cnc(N)c(c1)O[C@H](C)c1cc(F)ccc1-c1nn(C)nc1C2 [Example 5, (19R)-3-ethyl-16-fluoro-10,19-dimethyl-20-oxa-3,4,9,10,11,23-hexaazapentacyclo[19.3.1.0^2,^6.0^8,^12.0^13,^18]pentacosa-1(24),2(6),4.8,11,13,15,17,21(25),22-decaen-22-amine]",–,–
